# Laboratory results taken from US5336485A, “Method for protecting animals against tacrine induced cytotoxic injury using sterol compounds” (priority 1993, dated 1994).
# What was measured:
# rat = details: in vivo, ip, 100 mg/kg
# Experimental: The duration of pentobarbitone-induced sleeping time is directly dependent on the metabolism of pentobarbitone in the liver.
# ^a Rats are pretreated, with the compounds listed, 20 hours prior to
# rat hepatocytes [1] = assay: EMS-induced cytotoxicity (LDH leakage/cell death) in rat hepatocyte suspensions; details: Rattus norvegicus, Hepatocyte, 5 h, read-out: Percent Cytoprotection, 25 μM, 50 mM EMS, 5 h
# [2] = tested on: isolated rat liver mitochondria; details: 6 mM succinate; cited from earlier work
# rat hepatocytes [3] = assay: ATP content of rat hepatocyte suspensions; format: cell-based; details: 25 μM
# Text: It is well known that the succinate molecule is utilized by the cell to produce ATP energy. In the tricarboxylic acid cycle, succinate is oxidized by succinate dehydrogenase to produce ATP. Oxidation occurs in the mitochondria and the mitochondria can utilize both succinate formed in the mitochondria or succinate transported to the mitochondria. Increasing ATP production may enhance cellular repair processes as well as normal metabolic processes. For example, the cell's ability to remove free intracellular Ca^2+ during a toxic insult is related to ATP production. Succinate administration stimulates gluconeogenesis to form glucose 6-phosphate which is used for producing energy anaerobically (ATP formation through glycolysis) and for producing reducing equivalents (NADPH formation through the hexose monophosphate shunt needed for lipid and nucleotide biosynthesis and other biosynthetic reductions and enzymatic reactions, e.g., glutathione reductase). An in vitro experiment was conducted to determine the relationship between the release of succinate from alpha-TS and the cellular ATP level. The experiment was performed by incubating a tocopherol analog in a rat hepatocyte suspension and measuring the ATP level at the beginning and end of the test.
# Rat hepatocyte suspensions were subjected to 50 mM EMS and the percentage of cell death, the percentage of intracellular K^+ (a metabolic parameter as discussed above), the depletion of ATP and the effect on lipid peroxidation were monitored.
# male Sprague-Dawley rats = assay: CCl4 induced lethality in rats; format: in vivo, rat
# L1210 leukemia cells = details: mouse, in vivo
# [4] = tested on: gluconeogenesis or ATP production; details: cited from earlier work
Sleeping Time (rat) [min],Compound,inhibition at 25 µM (rat hepatocytes [1]) [%],increase of Ca2+ capacity and Ca2+ retention of mitochondria [2],Rate of ATP Depletion (rat hepatocytes [3]) [nmoles/10^6 cell/hr],Cellular ATP (rat hepatocytes [3]; 0 Hr) [nmoles/10^6 cells],Cellular ATP (rat hepatocytes [3]; 6 Hr) [nmoles/10^6 cells],"Survival after CCl4 treatment (male Sprague-Dawley rats; 100 mg/kg ip 24 h prior, […] CCl4 oral)","Days Survived After CCl4 Treatment (male Sprague-Dawley rats; 100 mg/kg, single dose 24 h prior, CCl4 […]) [days]","cytoprotection (Table 7, in words) (male Sprague-Dawley rats; rat, in vivo)",Survival time (footnote) (L1210 leukemia cells),concentration required to stimulate gluconeogenesis or ATP production [4]
900 ± 120,CC(C)(C(=O)c1cccnc1)c1cccnc1 [Metyrapone],,,,,,,,,,
,"O=C(O)CCC(=O)O [Succinic Acid, reference compound]",0,five to seven,1.8 ± 0.2,15.7 ± 1.3,4.9 ± 0.6,No,2,not cytoprotective,identical for succinate and vehicle treated,Millimolar concentrations
